Experimental data as given in patent publication US10064830B2, “Treatment and prevention of cardiovascular disease and thrombosis” (The Cleveland Clinic Foundation, priority 2012, dated 2018).
“Also recorded” adds a separate entry of the source.

Experiments:
proteus mirabilis = assay: TMA production from choline by proteus mirabilis (FIG. 24); format: cell-based
[1] = tested on: endogenous foam cell formation; assay: Macrophage cholesterol content and plasma TMAO in mice on chow supplemented with choline, TMAO or DMB (Example 1); format: in vivo, C57BL/6J.Apoe−/− mice; conditions: normal chow supplemented with choline, TMAO or DMB vs normal chow control
Description: Male C57BL/6J.Apoe−/− mice (15 week old) were placed on normal chow (control) alone or supplemented in the presence of either choline (1.0%), TMAO (0.12%), or DMB (1.0%). Peritoneal macrophages were recovered from the indicated number of mice at 20 weeks of age and cellular cholesterol content was quantified by stable isotope dilution GC/MS, and normalized to DNA content.
Experiments were conducted during development of embodiments of the present invention to examine the structural specificity of phaophatidylcholine metabolites in promoting a pro-atherogenic macrophage phenotype as monitored by endogenous foam cell formation. C57BL/6J.Apoe−/− mice at time of weaning were placed on either normal chow diet (control) or normal chow supplemented with either choline, TMAO or the choline analog DMB, where the quaternary amine nitrogen of choline is replaced with a carbon (SEE FIG. 2, right). Thus, DMB is structurally identical to choline except there is no C—N bond for potential cleavage and TMA formation by gut flora.

[2] = tested on: Atherosclerosis Prone ApoE−/− Mice; assay: Carotid artery in vivo thrombosis rates by vital microscopy, ApoE−/− mice (Example 7, part 5); conditions: diets +/- ABS for 3 weeks
Description: In this example, carotid artery in vivo thrombosis rates were determined using vital microscopy on the indicated groups of mice in FIG. 13. Mice were on the indicated diets +/− ABS for 3 weeks.
These studies extend to in vivo studies what was seen before with ex vivo platelet aggregation studies from mice on the various indicated diets. […] A shorter time indicates faster platelet aggregation (enhanced in vivo thrombosis).

wild-type mice = assay: Carotid artery in vivo thrombosis rates by vital microscopy, wild-type mice (Example 7, parts 6-7); conditions: for in vivo thrombosis rates: diets +/- ABS or DMB for 3 weeks
Description: This example repeats the study immediately above, excepts uses wild-type mice. The results are shown FIG. 14.
Carotid artery in vivo thrombosis rates were determined using vital microscopy on the indicated groups of mice shown in FIG. 15. Mice were on the indicated diets +/− ABS or DMB for 3 weeks.

platelets = assay: Ex vivo platelet aggregation triggered by ADP, platelets from mice on diets (Example 7, parts 2-4); format: in vivo; conditions: platelets from mice on high choline or TMAO diet +/- antibiotics or DMB
Description: (§1) In this example, mice were placed on either normal chow diet at time of weaning, or a high choline diet. After several weeks, whole blood was removed, and platelets isolated. The ability of a submaximal agonist of platelets, ADP, to trigger platelet aggregation was then determined. In parallel, plasma levels of TMAO were determined by established stable isotope dilution LC/MS/MS analyses. […] This is a clear signal of a pro-thrombotic phenotype in the mice on a high choline diet. In a similar study, the mice on the high choline were also placed on a cocktail of broad spectrum antibiotics (described above and in Wang et al., Nature 2011, April, 472(7341):57-63, incorporated by reference it its entirety for all purposes) to suppress intestinal microflora, and reduce plasma TMAO levels. […] Such drugs (e.g., DMB or antibiotics) are attractive since they should not induce excess bleeding (e.g., like commercial anti-thrombotic drugs like clopidogrel or Warfarin). That is, TMAO only accentuates platelet function, and reducing TMAO levels (like with DMB, antibiotic, or some other drug or approach, be it functional food, probiotic, or prebiotic) would decrease in vivo thrombosis, but not reduce below “normal” function, and thus not increase bleeding risk. […]

[3] = tested on: peritoneal mouse macrophages; assay: Total cholesterol in peritoneal macrophages by stable isotope dilution LC/MS/MS (Example 5); format: in vivo, C57BL/6J.Apoe−/− male mice; conditions: chow with 1.3% choline, 1.3% DMB, both or neither
Description: Experiments were conducted during development of embodiments of the present invention to determine the effect of DMB on total cholesterol level in peritoneal mouse macrophages (SEE FIG. 7). C57BL/6J.Apoe−/− male mice at the time of weaning (4 weeks) were placed on chow diet supplemented with 1.3% choline, 1.3% DMB, both, or neither. The total cholesterol of cells was quantified by stable isotope dilution LC/MS/MS. Cells number was quantified by protein content in cell lystates.

gut flora [4] = assay: Plasma TMA and TMAO in mice after 3 weeks on diets +/- ABS or DMB (Example 7, part 1); format: in vivo; conditions: female mice, 3 weeks on diet, chow or 1.0% wt/wt choline
Description: Six week old female mice were placed on the indicated diets +/− shown in FIG. 9, including Chow, CHOW+antibiotics (ABS; which was 0.5 g/L vancomycin, 1 g/L neomycin sulfate, 1 g/L metronidazole, and 1 g/L ampicillin), TMAO, CH (chow supplemented with 1.0% wt/wt choline), CH and ABS, and CH+DMB. Mice were placed on these diets at 6 weeks of age and maintained on the diets for 3 weeks. Plasma was then recovered and both TMA and TMAO were determined by stable isotope dilution LC/MS/MS.

gut flora [5] = assay: Plasma TMAO by stable isotope dilution LC/MS/MS in the mice of the platelet aggregation study; format: in vivo; conditions: high choline diet +/- antibiotics or DMB
Description: as §1

intestinal microflora = assay: Intestinal microflora-catalyzed generation of trimethylamine from D9-choline in cecum homogenate (Example 6); format: biochemical, Mouse; conditions: D9-choline substrate
Description: Experiments were conducted during development of embodiments of the present invention to examine the effect of DMB on intestinal microflora-catalyzed generation of trimethylamine from choline. Mouse celum was homogenized as a source of intestinal microflora. D9-choline was used as a substrate and the generation of […] was quantificed by stable isotope dilution LC/MS/MS.

Peritoneal macrophages = assay: Cholesterol accumulation and foam cell formation in peritoneal macrophages, oil red O staining (Example 4); format: in vivo, C57BL/6J.Apoe−/− male mice; conditions: 1.3% DMB added to 1.3% choline diet
Description: Experiments were conducted during development of embodiments of the present invention to examine the effect of addition of DMB on cholesterol accumulation and foam cell formation. C57BL/6J.Apoe−/− male mice at the time of weaning (4 weeks) were placed on chow diet supplemented with 1.3% choline, 1.3% DMB, both, or neither. Peritoneal macrophages were collected, fixed in 4% paraformaldehyde and stained with oil red 0/hematoxin.

[6] = tested on: C57BL/6J.Apoe−/− male mice; assay: Aortic root lesion plaque, oil red O staining (Example 2); format: in vivo
Text: C57BL/6J.Apoe−/− male mice at the time of weaning (4 weeks) were placed on chow diet supplemented with 1.3% choline, 1.3% DMB, both, or neither. Aortic root section was stained with oil red 0/hematoxin. The red oil staining area inside the aorta indicates lesion plaque (SEE FIGS. 3 and 4).

[7] = Plasma lipoprotein profile of mice on supplemented chow (Example 3); format: in vivo; conditions: 1.3% DMB added to mouse diet
Description: Experiments were conducted during development of embodiments of the present invention to compare plasma levels of (1) cholesterol, (2) triglyceride, low density lipoprotein-cholesterol, and HDL cholesterol in mice fed chow, or chow supplemented with 1.3% choline, 1.3% DMB, or both (SEE FIG. 5).

SMILES	TMA production from choline (proteus mirabilis)	macrophage cholesterol content [1]	plasma levels of TMAO [1]	in vivo thrombosis rates (time to cessation of blood flow in the carotid artery) [2]	in vivo thrombosis rates (wild-type mice)	platelet aggregation (response to ADP) (platelets)	macrophage cholesterol content (total cholesterol of cells) [3]	plasma TMA (gut flora [4])	plasma TMAO (gut flora [4])	TMAO levels (wild-type mice; high choline diet +/- ABS or DMB for 3 weeks)	plasma TMAO levels (gut flora [5])	gut flora-mediated catabolism of choline to TMA (intestinal microflora)	cholesterol accumulation and foam cell formation (Peritoneal macrophages)	reduction of aortic plaque formation ([6]; 1.3% DMB added to normal chow diet, apoE−/− mice)	increases in atherosclerotic plaque induced by the high choline diet ([6]; addition to chow with 1.3% choline)	plasma HDL cholesterol [7]	plasma low density lipoprotein-cholesterol [7]	plasma total cholesterol [7]	plasma triglyceride [7]
C[Si](C)(C)CCO [trimethylsilylethanol, trimethylsilyl ethanol]	serves as an inhibitor of TMA production from choline	–	–	–	–	–	–	–	–	–	–	–	–	–	–	–	–	–	–
C[N+](C)(C)[O-] [TMAO, trimethylamine N-oxide, reference compound]	–	increased macrophage cholesterol content	elevated plasma levels of TMAO	promotes accelerated in vivo thrombosis rates	Enhances In Vivo Thrombosis Rates	promotes enhanced platelet aggregation	–	–	–	–	–	–	–	–	–	–	–	–	–
CC(C)(C)CCO [DMB, 3,3-dimethyl-1-butanol]	–	no increased accumulation of cholesterol in endogenous macrophages	no TMAO increase	–	block the reduction in in vivo thrombosis rates seen on a high choline diet	markedly reduces platelet hyperresponsiveness; also recorded: blocks platelet hyper-responsiveness (aggregation)	blocked	inhibits TMA and TMAO formation	inhibits TMA and TMAO formation	block TMAO levels	inhibits TMAO formation	markedly inhibited	reversed the high choline diet induced cholesterol accumulation and foam cell formation	~90%	blocks the diet-induced enhanced artherosclerosis	increase in high density lipoproteins	significant reductions	significant reductions	significant reductions
